# Measured values as given in US20210338647A1, “Combination of Acetylcholinesterase Inhibitor and 5-HT4 Receptor Agonist As Neuroprotective Agent In the Treatment of Neurodegenerative Diseases” (UNIVERSITE DE CAEN NORMANDIE, priority 2018, published 2021).
# Marks after values point to notes of the source that are not given here.
# Experiments:
# [1] = tested on: rat primary hippocampal neurons injured with Aβ 1-42; assay: Survival of MAP-2 neurons in primary culture of hippocampal neurons injured with Aβ 1-42; format: cell-based; details: for Survival: Aβ1-42 20 μM/2.5 μM, percentage of control, Example 3
# Experimental: (§1) Rat hippocampal neurons were cultured as described by Callizot et al. (2013) J. Neurosci. Res. 91706-716. Pregnant female rats of 17 days gestation (Rats Wistar; Janvier Labs France) were killed using a deep anesthesia with CO2 chamber followed by a cervical dislocation. Then, fetuses were removed from the uterus and immediately placed in ice-cold L15 Leibovitz medium with a 2% penicillin (10,000 U/ml) and streptomycin (10 mg/ml) solution (PS) and 1% bovine serum albumin (BSA). Hippocampal neurons were treated for 20 min at 37° C. with a trypsin-EDTA solution at a final concentration of 0.05% trypsin and 0.02% EDTA. The dissociation was stopped by adding Dulbecco's modified Eagle's medium (DMEM) with 4.5 g/l of glucose, containing DNAse I grade 11 (final concentration 0.5 mg/ml) and 10% fetal calf serum (FCS). Cells were mechanically dissociated by three forced passages through the tip of a 10-ml pipette and then centrifuged at 515×g for 10 min at 4° C. The supernatant was discarded, and the pellet was resuspended in a defined culture medium consisting of Neurobasal medium with a 2% solution of B27 supplement, 2 mmol/l of L-glutamine, 2% of PS solution, and 10 ng/ml of brain-derived neurotrophic factor (BDNF). Viable cells were counted in a Neubauer cytometer, using the trypan blue exclusion test. […] The medium was changed every 2 days.
# The hippocampal neurons were exposed with Aβ solutions (see below) after 17 days of culture. The Aβ1-42 preparation was done following the procedure described by Callizot et al. (2013) J. Neurosci. Res. 91706-716. Briefly, Aβ1-42 peptide was dissolved in the defined culture medium mentioned above, at an initial concentration of 40 μM. This solution was gently agitated for 3 days at 37° C. in the dark and immediately used after being properly diluted in culture medium to the concentrations used (20 μM (plate 1) or 2.5 μM (plate 2) corresponding to 2 μM or 0.25 μM of oligomers (AβO) respectively). […]
# The compound was preincubated one hour before […] application. The following conditions were assessed:
# (§2) After permeabilization with 0.1% of saponin, cells were incubated for 2 h with:
# a) chicken polyclonal antibody anti microtubule-associated-protein 2 (MAP-2), diluted at 1/1000 in PBS containing 1% fetal calf serum and 0.1% of saponin (this antibody allows the specific staining of neuronal cell bodies and neurites; and allow the study of neuronal cell death and neurite network).
# (§3) For each condition, 30 pictures (representative of the whole well area) per well were taken using ImageXpress (Molecular Devices) at 20× magnification. All images were taken with the same acquisition parameters. Analyses were performed automatically by using Custom Module Editor (Molecular Devices).
# Total number of neurons (neuron survival, number of MAP-2 positive neurons)
# (§4) Rat hippocampal neurons were cultured as described by Callizot et al. (2013) J. Neurosci. Res. 91:706-716. Briefly, pregnant female rats of 17 days gestation (Rats Wistar; Janvier Labs France) were killed using a deep anesthesia with CO2 chamber and a cervical dislocation. Then, fetuses were removed from the uterus and immediately placed in ice-cold L15 Leibovitz medium with a 2% penicillin (10,000 U/ml) and streptomycin (10 mg/ml) solution (PS) and 1% bovine serum albumin (BSA). The hippocampi were treated for 20 min at 37° C. with a trypsin-EDTA solution at a final concentration of 0.05% trypsin and 0.02% EDTA.
# phospho Tau (AT100) = assay: Phosphorylation of Tau (AT100) in MAP-2 neurons injured with Aβ 1-42; format: cell-based, rat; details: for AT100: Aβ1-42 20 μM/2.5 μM, percentage of control, Example 3
# Experimental: as §1
# (§5) The hippocampal neurons were exposed with Aβ solutions (see below) after 17 days of culture. The Aβ1-42 preparation was done following the procedure described by Callizot et al. (2013) J. Neurosci. Res. 91706-716. Briefly, Aβ1-42 peptide was dissolved in the defined culture medium mentioned above, at an initial concentration of 40 μM. This solution was gently agitated for 3 days at 37° C. in the dark and immediately used after being properly diluted in culture medium to the concentrations used (20 μM (plate 1) or 2.5 μM (plate 2) corresponding to 2 μM or 0.25 μM of oligomers (AβO) respectively).
# (§6) Donecopride fumarate was solved in culture medium and preincubated 1 h before Aβ application. Aβ1-42 preparation was added to a final concentration of 20 or 2.5 μM (=2 μM or 0.25 μM of AβO, evaluated by automatic Western Blot) diluted in control medium in presence of Donecopride.
# (§7) Donecopride fumarate (Donecopride) was tested on one culture in a 96 well plate (6 wells per conditions). The compound was preincubated one hour before […] application. The following conditions were assessed:
# as §2
# b) mouse monoclonal antibody anti-phospho Tau (AT100) at dilution of 1/400 in PBS containing 1% fetal calf serum and 0.1% of saponin.
# as §3
# area of tau in neurons (μm^2, overlapping with MAP-2 positive neurons).
# as §4, with “EDTA. The dissociation was stopped by addition of Dulbecco's modified Eagle's medium (DMEM) with 4.5 g/l of glucose, containing DNAse I grade II (final concentration 0.5 mg/ml) and 10% fetal calf serum (FCS). Cells were mechanically dissociated by three forced passages through the tip of a 10-ml pipette.” for “EDTA.”
# [2] = tested on: rat primary hippocampal neurons injured with Aβ 1-42; assay: Number of synapses (PSD95/SYN overlap) in primary culture of hippocampal neurons injured with Aβ 1-42; format: cell-based; details: for Synapses: Aβ1-42 20 μM/2.5 μM, percentage of control, Example 3
# Experimental: as §1, §5, §6, §7, §2
# a) mouse monoclonal antibody anti post synaptic density 95 kDa (PSD95) at a dilution of 1/100 in PBS containing 1% fetal calf serum and 0.1% of saponin.
# b) Rabbit polyclonal antibody anti-synaptophysin (SYN) at the dilution of 1/100 in PBS containing 1% fetal calf serum and 0.1% of saponin.
# For each condition, 40 pictures per well were taken using ImageXpress (Molecular Devices) with 40× magnification. All images were taken with the same acquisition parameters.
# Synapses evaluation was performed automatically by using Custom module editor (Molecular Devices).
# Total number of synapses (overlapping between PSD95/SYN).
# To assess the formation of synapses, the distribution of PSD-95, a post-synaptic marker, and synaptophysin, a pre-synaptic marker, was studied. A structure positive for both PSD-95 and synaptophysin staining was considered as a synapse.
# Rat hippocampal neurons were cultured as described by Callizot et al. (2013) J. Neurosci. Res. 91:706-716.
# [3] = Aβ 1-42 injured hippocampal neurons, Example 3 step 1
compound,measurement,setting,value
COc1cc2c(cc1OC)C(=O)C(CC1CCN(Cc3ccccc3)CC1)C2 (stereo not drawn) [Donepezil],Lowest active dose in this model,"[1]; Aβ 1-42 injured hippocampal neurons, any parameter of Table 7",1 nM
same,Survival,[1]; donepezil 100 pM,69%
same,Survival,[1]; donepezil 1 nM,75%*
same,Survival,[1]; donepezil 10 nM,86%*
same,Survival,[1]; donepezil 50 nM,91%*
same,Survival,[1]; donepezil 100 nM,90%*
same,Survival,[1]; donepezil 500 nM,86%*
same,Survival,[1]; donepezil 1 μM,85%*
same,Survival,[1]; donepezil 10 μM,85%*
same,AT100,phospho Tau (AT100); donepezil 100 pM,181%
same,AT100,phospho Tau (AT100); donepezil 1 nM,165%*
same,AT100,"phospho Tau (AT100); donepezil 1 nM, listed as donepezil",165%
same,AT100,phospho Tau (AT100); donepezil 10 nM,146%*
same,AT100,phospho Tau (AT100); donepezil 50 nM,139%*
same,AT100,phospho Tau (AT100); donepezil 100 nM,140%*
same,AT100,phospho Tau (AT100); donepezil 500 nM,142%*
same,AT100,phospho Tau (AT100); donepezil 1 μM,141%*
same,AT100,phospho Tau (AT100); donepezil 10 μM,143%*
same,Number of synapses normalized by the number of neurons (formation of new synapses),"[2]; Donepezil 1 μM, Aβ 1-42 injured hippocampal neurons, Example 1",had no effect
same,Synapses,[2]; donepezil 100 pM,68%
same,Synapses,[2]; donepezil 1 nM,72%
same,Synapses,[2]; donepezil 10 nM,81%*
same,Synapses,[2]; donepezil 50 nM,84%*
same,Synapses,[2]; donepezil 100 nM,87%*
same,Synapses,[2]; donepezil 500 nM,90%*
same,Synapses,[2]; donepezil 1 μM,91%*
same,Synapses,[2]; donepezil 10 μM,93%*
"CCCCN1CCC(CCC(=O)c2cc(Cl)c(N)cc2OC)CC1 [RS67333, 1-(4-amino-5-chloro-2-methoxy-phenyl)-3-(1-butyl-4-piperidinyl)-1-propanone]",Lowest protective active dose: neuronal survival,[1]; [3],50 nM
same,Lowest protective active dose: hyperphosphorylation of Tau,phospho Tau (AT100); [3],1 nM
same,Lowest protective active dose: synapse,[2]; [3],1 µM
